Laboratory results published in ChEMBL document CHEMBL5303304, “EUbOPEN Chemogenomics Library - IncuCyte” (2023).

Key:
Assay type in all cases: toxicity, cell-based
[1] = system: Fibroblast; experiment: Incucyte cell viability with human fibroblast; details: 10 µM, compound concentration 10 uM
[2] = system: HEK-293T; experiment: Incucyte cell viability with HEK293T; details: human, 10 µM, compound concentration 10 uM
[3] = system: U2OS; experiment: Incucyte cell viability with U2OS; details: human, 10 µM, compound concentration 10 uM
Further: unitless GR value; below 1 slowed growth and below 0 cell loss.

SMILES | Growth Rate ([1]; 0 h, replicate number 1) | Growth Rate ([1]; 6 h, replicate number 1) | Growth Rate ([1]; 12 h, replicate number 1) | Growth Rate ([1]; 12 h, replicate number 2) | Growth Rate ([1]; 18 h, replicate number 1) | Growth Rate ([1]; 18 h, replicate number 2) | Growth Rate ([1]; 24 h, replicate number 1) | Growth Rate ([1]; 24 h, replicate number 2) | Growth Rate ([2]; 6 h, replicate number 1) | Growth Rate ([2]; 6 h, replicate number 2) | Growth Rate ([2]; 12 h, replicate number 1) | Growth Rate ([2]; 12 h, replicate number 2) | Growth Rate ([2]; 18 h, replicate number 1) | Growth Rate ([2]; 18 h, replicate number 2) | Growth Rate ([2]; 24 h, replicate number 1) | Growth Rate ([2]; 24 h, replicate number 2) | Growth Rate ([3]; 0 h, replicate number 1) | Growth Rate ([3]; 6 h, replicate number 1) | Growth Rate ([3]; 24 h, replicate number 1) | Growth Rate ([3]; 12 h, replicate number 1) | also measured
Cc1nc2ccc(Oc3ccc(F)cc3)cc2c(=O)n1C[C@H]1CCCN(C(C)C)C1.Cl | -1 | 0.24 | 0.12 | 0.34 | 0.13 | 0.69 | 0.18 | 0.73 | 0.43 | 0.87 | 0.27 | 0.35 | 0.16 | 0.4 | 0.17 | 0.23 | 0.57 | 0.84 | 0.95 | – | Growth Rate ([3]; 0 h, replicate number 2): -0.36
N[C@@H]1CCCC[C@H]1Oc1ccc2ncc(-c3cc4ccccc4o3)n2n1 | -1 | -0.12 | -0.57 | -0.62 | -0.67 | -0.65 | -0.62 | -0.55 | -0.98 | -0.97 | -0.86 | -0.77 | -0.66 | -0.63 | -0.53 | -0.43 | -0.99 | -0.96 | -0.75 | -0.95 | Growth Rate ([1]; 6 h, replicate number 2): -0.77; Growth Rate ([3]; 6 h, replicate number 2): -0.91; Growth Rate ([3]; 12 h, replicate number 2): -0.8; Growth Rate ([3]; 18 h, replicate number 1): -0.88; Growth Rate ([3]; 18 h, replicate number 2): -0.72; Growth Rate ([3]; 24 h, replicate number 2): -0.63
CN(CCCCCCC1=C(c2cc(F)cc(F)c2)CCCc2cc(O)ccc21)CCCCS(=O)(=O)CCCC(F)(F)F | -1 | -0.99 | -0.97 | – | -0.89 | -0.88 | -0.77 | -0.65 | -0.95 | -0.98 | -0.48 | -0.83 | -0.16 | -0.52 | -0.1 | -0.38 | -1 | -0.96 | -0.72 | -0.94 | Growth Rate ([1]; 6 h, replicate number 2): -1; Growth Rate ([3]; 0 h, replicate number 2): -0.54; Growth Rate ([3]; 6 h, replicate number 2): -0.93; Growth Rate ([3]; 12 h, replicate number 2): -0.68; Growth Rate ([3]; 18 h, replicate number 1): -0.87; Growth Rate ([3]; 18 h, replicate number 2): -0.58; Growth Rate ([3]; 24 h, replicate number 2): -0.49
O=C(N[C@H](Cc1ccccc1)C(=O)O)c1cccc(OCc2cccnc2)c1.O=CO | – | 0.68 | 0.47 | 0.7 | 0.93 | 0.81 | 0.88 | – | 0.73 | – | – | – | 1 | – | – | – | 0.75 | 0.69 | 0.8 | 0.66 | Growth Rate ([3]; 0 h, replicate number 2): 0.39; Growth Rate ([3]; 6 h, replicate number 2): 0.67; Growth Rate ([3]; 12 h, replicate number 2): 0.77; Growth Rate ([3]; 18 h, replicate number 2): 0.98; Growth Rate ([3]; 24 h, replicate number 2): 0.86
Cl.O=C(O)CCCN1CCC[C@H]1COc1ccc(Oc2ccc(Cl)cc2)cc1 | -1 | 0.91 | – | 0.93 | 0.87 | – | – | – | 0.64 | -0.09 | 0.9 | 0.12 | – | 0.37 | 0.98 | 0.53 | – | 0.84 | 0.94 | – | –
CC(C)Oc1ccc(Cc2ccc(NC3=NCCN3)cc2)cc1 | -1 | -0.34 | -0.06 | 0.88 | 0.24 | – | 0.26 | – | -0.15 | -0.39 | 0.09 | 0.14 | 0.26 | 0.42 | 0.37 | 0.45 | 0.6 | 0.1 | 0.58 | 0.64 | Growth Rate ([1]; 0 h, replicate number 2): -0.09; Growth Rate ([1]; 6 h, replicate number 2): 0; Growth Rate ([3]; 18 h, replicate number 1): 0.59
